According to ChEMBL document CHEMBL4673346, “Discovery of a benzimidazole series as the first highly potent and selective ACSL1 inhibitors” (Bioorg Med Chem Lett, 2021):
pIC50: −log10 of the molar value.

What was measured:
[1] = AUC in rat at 1 mg/kg, po; assay type: ADME, organism-based; set-up: dose 1 mg/kg; conditions: in vivo
[2] = biological target: T1, Long-chain-fatty-acid--CoA ligase 5 (Homo sapiens, UniProt Q9ULC5); assay: Inhibition of recombinant human ACSL5 assessed as reduction in […] prodution incubated for 90 mins in presence of Coenzyme A, ATP and MgCl2 by MALDI-TOF MS analysis
T1 sequence (Q9ULC5 whole entry): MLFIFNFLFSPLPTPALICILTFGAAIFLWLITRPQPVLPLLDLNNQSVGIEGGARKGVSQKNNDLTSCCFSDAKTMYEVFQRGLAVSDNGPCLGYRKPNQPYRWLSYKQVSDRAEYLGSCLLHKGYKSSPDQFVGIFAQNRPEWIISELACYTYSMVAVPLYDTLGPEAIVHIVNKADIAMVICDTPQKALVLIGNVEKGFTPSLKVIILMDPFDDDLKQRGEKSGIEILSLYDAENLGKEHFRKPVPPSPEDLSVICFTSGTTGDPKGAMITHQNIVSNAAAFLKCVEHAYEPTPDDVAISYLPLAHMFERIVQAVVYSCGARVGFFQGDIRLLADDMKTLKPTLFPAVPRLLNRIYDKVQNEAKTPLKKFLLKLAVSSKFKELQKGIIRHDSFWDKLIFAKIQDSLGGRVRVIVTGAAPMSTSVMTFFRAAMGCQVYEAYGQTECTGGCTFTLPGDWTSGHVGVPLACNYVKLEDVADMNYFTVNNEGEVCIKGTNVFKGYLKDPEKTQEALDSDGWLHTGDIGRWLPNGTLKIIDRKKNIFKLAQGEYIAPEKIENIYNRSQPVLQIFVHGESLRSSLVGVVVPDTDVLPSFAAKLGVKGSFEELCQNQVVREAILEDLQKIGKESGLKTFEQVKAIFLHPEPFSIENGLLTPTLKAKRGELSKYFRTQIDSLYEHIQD

[3] = biological target: T2, Long-chain-fatty-acid--CoA ligase 6 (Homo sapiens, UniProt Q9UKU0); assay: Inhibition of recombinant human ACSL6 assessed as reduction in […] prodution incubated for 60 mins in presence of Coenzyme A, ATP and MgCl2 by MALDI-TOF MS analysis
T2 sequence (Q9UKU0 whole entry): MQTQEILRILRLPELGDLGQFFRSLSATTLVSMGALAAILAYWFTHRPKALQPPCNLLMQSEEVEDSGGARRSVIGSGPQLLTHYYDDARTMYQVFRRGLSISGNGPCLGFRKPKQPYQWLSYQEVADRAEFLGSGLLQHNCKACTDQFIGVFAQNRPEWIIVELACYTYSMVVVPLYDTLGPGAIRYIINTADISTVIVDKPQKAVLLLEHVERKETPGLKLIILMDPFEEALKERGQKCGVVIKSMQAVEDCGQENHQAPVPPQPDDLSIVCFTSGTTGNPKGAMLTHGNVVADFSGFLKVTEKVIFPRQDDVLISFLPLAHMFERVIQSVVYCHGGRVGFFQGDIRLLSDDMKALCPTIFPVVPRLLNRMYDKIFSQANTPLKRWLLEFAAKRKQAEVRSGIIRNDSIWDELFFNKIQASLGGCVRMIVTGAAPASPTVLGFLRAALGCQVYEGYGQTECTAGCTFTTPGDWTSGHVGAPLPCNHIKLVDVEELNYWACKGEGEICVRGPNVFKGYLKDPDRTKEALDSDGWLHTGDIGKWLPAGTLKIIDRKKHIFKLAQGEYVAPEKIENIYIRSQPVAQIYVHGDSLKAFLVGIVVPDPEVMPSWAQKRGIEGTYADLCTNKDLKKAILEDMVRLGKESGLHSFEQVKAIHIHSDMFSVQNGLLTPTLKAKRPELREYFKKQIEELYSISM

Mus musculus = assay: In vivo inhibition of ACSL1 in mouse assessed as reduction in acyl-coA production in liver administered orally using oleic acid as substrate and measured after 17 hrs; assay type: functional, organism-based
Cytochrome P450 1A2 = biological target: T3, Cytochrome P450 1A2 (Homo sapiens, UniProt P05177); assay: Inhibition of CYP1A2 (unknown origin); assay type: ADME
T3 sequence (P05177 whole entry): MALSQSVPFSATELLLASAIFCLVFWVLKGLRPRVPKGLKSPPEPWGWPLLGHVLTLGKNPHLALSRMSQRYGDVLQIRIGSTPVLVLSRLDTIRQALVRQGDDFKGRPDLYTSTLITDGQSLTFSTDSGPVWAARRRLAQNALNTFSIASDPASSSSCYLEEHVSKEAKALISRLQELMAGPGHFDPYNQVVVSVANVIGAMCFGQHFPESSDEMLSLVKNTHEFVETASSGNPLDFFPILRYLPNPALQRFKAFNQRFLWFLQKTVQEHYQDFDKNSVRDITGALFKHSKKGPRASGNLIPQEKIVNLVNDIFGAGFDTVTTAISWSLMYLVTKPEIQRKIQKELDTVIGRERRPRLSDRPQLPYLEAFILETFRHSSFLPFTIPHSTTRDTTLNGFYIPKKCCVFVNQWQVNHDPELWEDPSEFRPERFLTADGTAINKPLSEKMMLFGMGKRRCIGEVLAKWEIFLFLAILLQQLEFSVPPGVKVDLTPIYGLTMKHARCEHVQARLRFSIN

[4] = Metabolic stability in rat liver microsomes assessed as compound remaining after 30 mins; assay type: ADME, Microsome; conditions: read-out: Stabilty
[5] = Fraction unbound in rat plasma; assay type: ADME, cell-free

Cc1cccc(Cc2nc3cc(O[C@H]4CC[C@@H](C(=O)O)CC4)ccc3n2C)c1
AUC [1]: 11.8 µg·h/mL | pIC50 [2]: < 3.70 | pIC50 [3]: < 3.70 | inhibition (Mus musculus): Dose-dependent effect | pIC50 (Cytochrome P450 1A2): < 4.70 | remaining at 0.5 h [4]: 93% | fraction unbound [5]: 0.017
